Compound: COc1cc(Nc2c(C#N)cnc3cc(OCCCN4CCN(C)CC4)c(OC)cc23)c(Cl)cc1Cl [Bosutinib] + CC(=O)c1c(C)c2cnc(Nc3ccc(N4CCNCC4)cn3)nc2n(C2CCCC2)c1=O [Palbociclib] (partner 0.5 µM)
Test: relative viability (nuclei count vs DMSO), 5 days (fraction); higher = more cells survive
Method in brief: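 Dosing by pin tool came one day after lung cancer cell lines were seeded in 1536-well plates, using either one drug or a fixed anchor-drug dose plus five library-drug doses (not always all listed) in √10 steps. After 5 days, nuclei were counted on 4× images. Relative viability is treated-well nuclei count divided by vehicle-well nuclei count, and values are medians of duplicate plates.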

Cell Line	relative viability (first compound 0.01 µM)	relative viability (first compound 0.03162 µM)	relative viability (first compound 0.1 µM)	relative viability (first compound 1 µM)
EMC-BAC-2	0.519	0.5	0.508	0.533
NCI-H661	0.392	0.398	0.434	0.363
LU99A	0.45	0.409	0.44	0.421
LK-2	0.681	0.636	0.584	0.66
NCI-H3122	0.214	0.18	0.201	0.218
NCI-H2347	0.499	0.425	0.432	0.453
HCC-827	0.439	0.473	0.469	0.196
NCI-H1666	0.663	0.664	0.634	0.674
NCI-H358	0.154	0.141	0.139	0.128
201T	0.355	0.345	0.35	0.338
PC-3 [JPC-3]	0.506	0.543	0.542	0.516
NCI-H2405	0.518	0.514	0.561	0.383
LXF-289	0.634	0.614	0.607	0.669
EKVX	0.39	0.367	0.373	0.314
A-427	0.585	0.496	0.504	0.523
ChaGo-K-1	0.918	0.939	0.972	0.881
NCI-H2342	0.539	0.508	0.545	0.579
SK-MES-1	0.329	0.327	0.326	0.295

Cell Line	relative viability (first compound 0.01 µM)	relative viability (first compound 0.03162 µM)	relative viability (first compound 0.1 µM)	relative viability (first compound 1 µM)
LCLC-97TM1	0.224	0.245	0.256	0.2
NCI-H2170	0.351	0.373	0.383	0.4
NCI-H1993	0.67	0.783	0.718	0.619
NCI-H460	0.165	0.173	0.148	0.0817
NCI-H1975	0.572	0.638	0.625	0.516
RERF-LC-KJ	0.956	1.06	1.06	1.08
NCI-H322M	0.523	0.452	0.492	0.414
NCI-H1651	0.506	0.535	0.507	0.534
HARA	0.339	0.293	0.243	0.171
H3255	0.322	0.306	0.323	0.319
NCI-H441	0.193	0.217	0.262	0.22
CAL-12T	0.488	0.493	0.396	0.117
ABC-1	0.864	0.72	0.759	0.612
NCI-H1792	0.686	0.588	0.724	0.728
NCI-H1437	0.332	0.281	0.317	0.343
HOP-62	0.378	0.487	0.473	0.447
EPLC-272H	0.282	0.305	0.313	0.317

Reference: the supplement of paper PMC10307832
